Results published in publication PMC3646032 (PLoS ONE, 2013).
Several values for one entry are separate records, joined by “and”; a condition that tells them apart may be missing. Equal entries are not always repeated.

Tests used:
[1] = biological target: M. tuberculosis Shikimate Kinase (MtSK) (Mycobacterium tuberculosis, UniProt P9WPY3); type: biochemical
[2] = test system: EcSK (SK from Erwinia chrysanthemi); design: method as in PMID 11369852; conditions: cited from earlier work
[3] = test system: E. coli SKII (aroL-encoded); conditions: cited from earlier work
[4] = 1-COOH, in solution; cited from earlier work
[5] = test system: E. coli SKI (aroK-encoded); conditions: cited from earlier work
[6] = biological target: T1, MtSK (Mycobacterium tuberculosis, UniProt P9WPY3); test: biochemical; type: binding; conditions: 298.15 K, Hepes, pH 7.6
T1 sequence (P9WPY3 2-176): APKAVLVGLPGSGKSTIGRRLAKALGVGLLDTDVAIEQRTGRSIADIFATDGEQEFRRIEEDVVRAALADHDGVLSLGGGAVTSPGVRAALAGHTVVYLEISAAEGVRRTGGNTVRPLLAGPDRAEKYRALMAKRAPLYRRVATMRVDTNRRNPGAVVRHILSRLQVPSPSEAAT

[7] = biological target: T1, MtSK; conditions: cited from earlier work
[8] = biological target: EcSK (aroL-encoded SK from Erwinia chrysanthemi); design: method as in PMID 11369852; conditions: cited from earlier work
[9] = biological target: T1, MtSK; test: Equilibrium fluorescence spectroscopy, intrinsic tyrosine fluorescence; type: binding; conditions: 25°C, pH 7.6
Method: MtSK intrinsic protein fluorescence measurements were carried out to both determine the order of substrate/product addition/dissociation on/from the catalytic site and distinguish the enzyme kinetic mechanism. As MtSK has no tryptophan residues, changes in protein tyrosine fluorescence (the polypeptide chain of MtSK has 3 Tyr residues) upon ligand binding were monitored. Fluorescence measurements were carried out in a RF-5301 PC Spectrofluorophotometer (Shimadzu) at 25°C. Excitation wavelength was 280 nm and emission spectra were collected from 300 to 500 nm. The maximum values of fluorescence intensity at 315 nm values were plotted as a function of increasing ligand concentration. Excitation and emission slits were 5 nm. As protein tyrosine typically has a low sensitivity (low molar absorption coefficient and low fluorescence quantum yield), MtSK concentration for binding experiments was 10 µM. […]
Equilibrium fluorescence spectroscopy data were fitted to Eq. 4, in which F is the observed fluorescence, F 0 is the initial fluorescence, F ∞ is the maximum change in fluorescence at saturating ligand (L) concentration, and K D represents the equilibrium dissociation constant for protein:ligand binary complex formation.

Chain of M. tuberculosis Shikimate Kinase (MtSK) (P9WPY3 2-176): as above

## c1c[nH]cn1 [imidazole]
[1]; 50 mM imidazole in assay mixture
  enzyme inhibition of MtSK activity: No enzyme inhibition
[1]; assay mixture containing 50 mM imidazole (9.2 U mL^−1 in its absence)
  enzyme velocity of MtSK: 9.5 U mL^−1

## O=C(O)C1=C[C@@H](O)[C@@H](O)[C@H](O)C1 [SKH, [3R-(3α,4α,5β)]3,4,5-trihydroxy-1-cyclohexene-1-carboxylic acid]
[2]
  K SKH: 310 µM
[3]
  K SKH: 200 µM
[4]
  pK a: 4.47
[5]
  K SKH: 20×10 ^3 µM
  KSKH: 20 mM

## Nc1ncnc2c1ncn2[C@@H]1O[C@H](COP(=O)(O)OP(=O)(O)OP(=O)(O)O)[C@@H](O)[C@H]1O [ATP, adenosine 5'-triphosphate]
[2]
  K MgATP: 620 µM
  k cat/KMgATP: 56000 M⁻¹ s⁻¹
[6]
  -TΔS: 0.044 (±0.007) kcal mol^−1
  Kd: 196 µM
  ΔG: −5.1 (±0.8) kcal mol^−1
  ΔH: −5.1 (±0.3) kcal mol^−1
  ΔS: −0.15 (±0.02) cal mol^−1 K^−1
[3]
  K MgATP: 160 µM
  k cat/KMgATP: 200000 M⁻¹ s⁻¹
[7]
  K MgATP: 83 (±4) µM
  k cat/KMgATP: 530000 M⁻¹ s⁻¹
[8]
  Kd: 2600 µM
[1]; pH 7.6
  K MgATP (Michaelis constant): 112 µM and 112 (±4) µM
[1]; true steady-state, 25°C, pH 7.6
  k cat/KMgATP: 5.4 (±0.7)×10^5 M^−1 s^−1

## O=C(O)C1=C[C@@H](OP(=O)(O)O)[C@@H](O)[C@H](O)C1 [S3P, shikimate 3-phosphate]
[6]
  binding to free enzyme detected by ITC: no binding
[9]
  change in intrinsic protein fluorescence upon binding to free MtSK: No change in protein fluorescence

## Nc1ncnc2c1ncn2[C@@H]1O[C@H](COP(=O)(O)OP(=O)(O)O)[C@@H](O)[C@H]1O [ADP, adenosine 5′-diphosphate]
[6]
  -TΔS: 7.9 (±0.2) kcal mol^−1
  Kd: 562 µM
  ΔG: −4.4 (±0.2) kcal mol^−1
  ΔH: −12.4 (±0.2) kcal mol^−1
  ΔS: −27 (±1) cal mol^−1 K^−1
